These results are taken from publication PMC4199632, “Exploring the Anti-Cancer Activity of Novel Thiosemicarbazones Generated through the Combination of Retro-Fragments: Dissection of Critical Structure-Activity Relationships” (PLoS ONE, 2014).

Where two headings read alike, the source gives them in different places.

One data set deals with SK-N-MC cells. Kind of data set: Mobilization of cellular 59Fe (59Fe efflux). It is filed as cell-based, human. To be noted: chelator 25 µM; for 59Fe mobilization (% of cellular 59Fe released): 3 h/37°C, prelabeled SK-N-MC cells, control medium 4±1%; for 59Fe mobilization efficacy compared with controls: SK-N-MC cells. The protocol: The iron transport protein, Tf (Sigma-Aldrich), was labeled with ^59Fe (PerkinElmer Life and Analytical Sciences, Boston, MA) to form ^59Fe2-Tf using standard methods, [7]. Unbound ^59Fe was removed by passage through a Sephadex G25 column and was followed by exhaustive dialysis, [7].
To examine the ability of the novel chelators to mobilize ^59Fe from SK-N-MC cells, ^59Fe efflux experiments were performed using established techniques, [51]. The monolayer of SK-N-MC cells was prelabeled for 3 h at 37°C in MEM containing ^59Fe2-Tf (0.75 µM). Cells were then washed four times with ice-cold PBS and incubated for a further 3 h at 37°C with medium alone (the control) or medium containing the chelator (25 µM). After this incubation, the overlying medium that contained the released ^59Fe was separated from the cells using a Pasteur pipette. Radioactivity was measured in both the cells and supernatant using a γ-scintillation counter (Wallac Wizard 3, Turku, Finland). In these studies, the novel ligands were compared to the previously characterized chelators, DFO and Dp44mT, as their ability to mobilize cellular ^59Fe has been extensively examined in these cells, [12], [17], [18], [50].
Figure 6 Effect of (A) series 1, (B) series 2, (C) series 3, (D) series 4, (E) series 5 and (F) series 6 chelators, relative to the controls DFO and Dp44mT, on ^59Fe mobilization from prelabeled SK-N-MC cells. Cells were incubated for 3 h/37°C with ^59Fe-transferrin (0.75 µM), washed 4 times with ice-cold PBS and then reincubated for 3 h/37°C in the presence or absence of the chelators (25 µM). Release of ^59Fe was then assessed using a γ-scintillation counter. Results are mean ±SD (3 experiments).

Data set [1] has as its system HeLa cervical carcinoma cells. Nature of the data set: Proliferation assay (crystal violet, 72 h). It is filed as cell-based. The following applies: Homo sapiens, 72 h incubation, mean ±SD (3 experiments). The essentials:
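Cells seeded 24 h before treatment, then exposed at 37 °C for 72 h (SK-N-MC, Raji, HeLa) or 96 h (HCT116, NHDF); final DMSO <0.05%. Read-outs: MTT at 570 nm (SK-N-MC, Raji), crystal violet at 595 nm (HeLa), MTS at 490 nm (HCT116, NHDF); IC50 is 50% absorbance versus untreated control, triplicates repeated three times.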

For data set [2], the system named is HCT116 p53+/+, HCT116 p53−/−, Raji, HeLa, SK-N-MC and NHDF cells. Nature of the data set: Proliferation assay, ranges stated over several cell-types. It is filed as cell-based, human. The following applies: for IC50: Homo sapiens; for Therapeutic index, NHDF relative to HCT116 cells: range over HCT116 p53+/+ and p53−/− and over the compounds named. The procedure: The human cancer cell types (neuroepithelioma (SK-N-MC), colon cancer (HCT116 with wild-type p53 (p53^+/+)), Burkitt's lymphoma (Raji) and cervical carcinoma (HeLa)) cells and normal human dermal fibroblasts (NHDF) were obtained from the American Type Culture Collection (ATCC, Manassas, VA, USA). HCT116 null p53 (p53^−/−) cells were obtained from the Maria Sklodowska-Curie Memorial Cancer Center and Institute of Oncology, Poland.
The SK-N-MC cells were cultured in minimum essential medium (MEM; Life Technologies, Grand Island, New York, USA) containing 10% (v/v) fetal bovine serum (FBS; Life Technologies), 1 mM sodium pyruvate (Life Technologies), 1% (v/v) non-essential amino acids (Life Technologies), 2 mM L-glutamine (Life Technologies), 100 U/mL penicillin (Life Technologies), 100 µg/mL streptomycin (Life Technologies) and 0.28 µg/mL fungizone (Bristol Myers Squibb Pharmaceuticals, Montreal, Canada). The HCT116 and NHDF cells were grown in Dulbecco's modified Eagle's medium (DMEM; Sigma-Aldrich) supplemented with 12% (v/v) heat-inactivated FBS (HCT116; Life Technologies) or 15% (v/v) FBS (NHDF; Life Technologies), 100 µg/mL of gentamicin (Polfa Warszawa S.A., Warsaw, Poland), 100 µg/mL of streptomycin (Polfa) and 100 U/mL of penicillin (Polfa). The Raji and HeLa cells were cultured in Roswell Park Memorial Institute medium (RPMI-1640; Sigma-Aldrich) with the addition of 10% (v/v) heat-inactivated FBS (Life Technologies) and the supplements described for SK-N-MC cells above. All cell lines were cultured under standard conditions at 37°C in a humidified atmosphere at 5% CO2 and were subcultured every 3–4 days as required.
The cells were seeded in 96-well plates (SK-N-MC: 1.5×10^4 cells/well; HeLa: 5.0×10^3 cells/well; Raji: 3.0×10^3 cells/well; HCT116: 3.5×10^3 cells/well; NHDF: 3.0×10^3 cells/well) 24 h prior to the addition of the novel compounds. The assays were performed using a 72 h (SK-N-MC, Raji, HeLa) or 96 h (HCT 116, NHDF) incubation period with the agents at 37°C. […] Additionally, DFO and Dp44mT were included as positive controls in all experiments as their activity is well characterized, [42], [50].
Chelator stock solutions were prepared in DMSO and diluted in media so that the final [DMSO] <0.05%. The results were expressed as a percentage of the control and the resulting IC50 values were calculated using GraphPad Prism 5 (GraphPad Software, Inc., La Jolla, CA, USA). The IC50 was defined as the concentration necessary to reduce the absorbance to 50% of the untreated control. Each individual compound was tested in triplicate in a single experiment, with each experiment being repeated three times. After incubation of HCT 116 and NHDF cells with the tested compounds, 20 µL of the CellTiter 96 Aqueous One Solution - MTS (Promega, Madison, WI, USA) solution was added to each well (with 100 µL of DMEM without phenol red) and incubated for 1 h/37°C. The optical density of the samples was analyzed at 490 nm.
MTT (3-[4,5-dimethylthiazol-2-yl]-2,5-diphenyltetrazolium bromide) was used to evaluate the anti-proliferative effects of the chelators in SK-N-MC and Raji cells. Following incubation with the investigated compounds, 10 µL of MTT (5 mg/mL in PBS; Sigma-Aldrich) was added to each well. After a 2 h (SK-N-MC) or 4 h (Raji) incubation, the plates were centrifuged, and the cells were lysed with 100 µL of 10% SDS-50% isobutanol in 0.01 M HCl (SK-N-MC) or DMSO (Raji). The absorbance was measured at 570 nm. The anti-proliferative effects of these novel agents on HeLa cells were estimated using crystal violet staining (0.5% crystal violet solution for 10 min). Finally, the wells were rinsed with water and the cells were lysed with 2% SDS. The optical density of the samples was analyzed at 595 nm.

On the set-up of data set [3]: method as in PMID 17003122. To be noted: high, non-optimal doses; cited from earlier work.
Data set [4] has as its system murine M109 lung carcinoma. Also noted: method as in PMID 15150082. To be noted: five day treatment, 0.4 mg/kg, mice; cited from earlier work.
Setting [5] is: HCT-116, range over HCT116 p53+/+ and p53−/− cells and over the compounds named, read-out: IC50 range in HCT116 cells.

On to `S=C(NN=C(c1ccccn1)c1ccccn1)N1CCN(c2cnccn2)CC1` [1e], for which the “59Fe mobilization (% of cellular 59Fe released)” value in the data set with SK-N-MC cells is 31–39%. The IC50 (in general, the concentration needed to halve the response being measured) in data set [1] turned out to be 0.72 ± 0.07 µM.

Turning to `CCN1CCN(C(=S)N/N=C/c2ccc3ccccc3n2)CC1` [2a], in the data set with SK-N-MC cells, the “59Fe mobilization efficacy compared with controls” value is given as “comparable ^59Fe mobilization efficacy to that of the control medium”. The 50% inhibitory concentration (IC50) in data set [1] is 0.43 ± 0.16 µM.

`S=C(N/N=C/c1ccc2ccccc2n1)N1CCN(c2ccccc2)CC1` [2b]: the “59Fe mobilization efficacy compared with controls” value in the data set with SK-N-MC cells was “comparable release of ^59Fe relative to DFO”. The concentration for half-maximal inhibition (IC50) is 0.0008 to 0.09 µM in data set [2] (setting [5]) and 0.2 ± 0.07 µM in data set [1]. In addition, the “Therapeutic index, NHDF relative to HCT116 cells” value in data set [2] is given as 0.4–0.8.

For `CN(C(=S)N/N=C/c1ccc2ccccc2n1)C1CCCCC1` [2f], the “59Fe mobilization efficacy compared with controls” value with SK-N-MC cells is recorded as “comparable release of ^59Fe relative to DFO”. Moreover, the figures for the IC50 in data set [2] (setting [5]) and in data set [1] were 0.0008 to 0.09 µM and 0.94 ± 0.45 µM, respectively. The “Therapeutic index, NHDF relative to HCT116 cells” value in data set [2] was 0.4–0.8.

As to `CN(C(=S)N/N=C/c1cnc2ccccc2n1)C1CCCCC1` [5f], the “59Fe mobilization efficacy compared with controls” value with SK-N-MC cells is “comparable release of ^59Fe relative to DFO”. Also, the IC50 in data set [1] is 4.09 ± 2.07 µM.

With `CN(C(=S)N/N=C/c1ccccc1O)C1CCCCC1` [6f], inhibition in data set [1] was half-maximal at 10.1 ± 3.6 µM (IC50).

On to `CC(=O)N(O)CCCCCNC(=O)CCC(=O)N(O)CCCCCNC(=O)CCC(=O)N(O)CCCCCN` [DFO, desferrioxamine, reference compound], for which the “59Fe mobilization (% of cellular 59Fe released)” value with SK-N-MC cells was 11±2%. Moreover, the IC50 in data set [1] was 14.3 ± 0.96 µM.

For `CN(C)C(=S)NN=C(c1ccccn1)c1ccccn1` [Dp44mT, di-2-pyridylketone 4,4-dimethyl-3-thiosemicarbazone, reference compound], the Toxicity finding entry in data set [3] is reported as “cardiac fibrosis”. In the data set on SK-N-MC cells, the “59Fe mobilization (% of cellular 59Fe released)” value was found to be 35±2%. The IC50 in data set [2] (range over the cancer cell-types of Table 1, read-out: IC50 range, anti-cancer activity) was 0.002 to 0.04 µM; in data set [1], 0.04 ± 0.01 µM. Also, in data set [4], the “Growth of murine M109 lung carcinoma (% of the control)” value is on record as 47%.
